Reference: patent publication US8957093B2, “N-biphenylmethylindole modulators of PPARG” (The Scripps Research Institute, priority 2011, dated 2015)
Where two headings read alike, the source gives them in different places.

Assays:
GST-PPARG-LBD = GST-PPARG-LBD (Homo sapiens (Human), UniProt P37231); assay: Lanthascreen PPARG competitive binding assay (Invitrogen, TR-FRET); conditions: Lanthascreen competitive binding; NA = not active; inc = incomplete curve; read-out: IC50 (nM) Lantha
How it was run: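 Values are fold change in 520 nm/490 nm FRET ratio relative to a 2% DMSO no-ligand control, excitation 340 nm. Compound dilutions starting at 10 μM competed against 5 nM Fluormone Pan-PPAR Green for GST-PPARG-LBD bound by 5 nM Tb anti-GST antibody. Incubation 2 h in the dark in assay buffer C, triplicate wells.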

[1] = biological target: Gal-4-PPAR (human PPAR LBD fused to GAL4 DNA-binding domain) (Homo sapiens (Human), UniProt P37231); assay: GAL4-PPARG LBD / UAS-luciferase transactivation assay in HEK 293T cells; type: cell-based
[2] = GAL4 transactivation, HEK 293T cells; NA = not active; read-out: EC50 (nM) GAL4
[3] = HEK-293T, 18 h; read-out: % transactivation at 10 μM (GAL4)
[4] = HEK-293T, 18 h, read-out: % transactivation at 10 μM (GAL4)

GST-PPARG-LBD, sequence (P37231 238-503): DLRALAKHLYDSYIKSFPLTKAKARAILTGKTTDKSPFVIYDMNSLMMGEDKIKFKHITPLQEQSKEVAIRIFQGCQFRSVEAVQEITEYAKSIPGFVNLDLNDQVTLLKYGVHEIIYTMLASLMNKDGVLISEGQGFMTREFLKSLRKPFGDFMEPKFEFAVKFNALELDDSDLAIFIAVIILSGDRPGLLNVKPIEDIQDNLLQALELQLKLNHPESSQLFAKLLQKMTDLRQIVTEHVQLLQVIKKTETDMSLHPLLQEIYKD
Gal-4-PPAR (human PPAR LBD fused to GAL4 DNA-binding domain), sequence (P37231 238-503): as above

Row | SMILES | IC50 (GST-PPARG-LBD) [nM] | EC50 [1, 2] [nM] | activation at 10 µM [1, 3] [%] | activation at 10 µM [1, 4] [%]
1 | Cc1c(F)cccc1[C@H](C)NC(=O)c1ccc2c(c1)c(C)c(C)n2Cc1ccc(-c2ccccc2C(=O)O)cc1 [Example 145, (S)-4′-((5-((1-(3-fluoro-2-methylphenyl)ethyl)carbamoyl)-2,3-dimethyl-1H-indol-1-yl)methyl)-[1,1′-biphenyl]-2-carboxylic acid] | < 1 | 70 | 35 | 
2 | COc1cc(F)cc([C@H](C)NC(=O)c2ccc3c(c2)c(C)c(C)n3Cc2ccc(-c3ccccc3C(=O)O)cc2)c1 [Example 146, (S)-4′-((5-((1-(3-fluoro-5-methoxyphenyl)ethyl)carbamoyl)-2,3-dimethyl-1H-indol-1-yl)methyl)-[1,1′-biphenyl]-2-carboxylic acid] | 12 | 455 | 30 | 
3 | COc1cc(OC)cc([C@H](C)NC(=O)c2ccc3c(c2)c(C)c(C)n3Cc2ccc(-c3ccccc3C(=O)O)cc2)c1 [Example 147, (S)-4′-((5-((1-(3,5-dimethoxyphenyl)ethyl)carbamoyl)-2,3-dimethyl-1H-indol-1-yl)methyl)-[1,1′-biphenyl]-2-carboxylic acid] | 20 | 9280 | 20 | 
4 | Cc1c(C)n(Cc2ccc(-c3ccccc3C(=O)O)cc2)c2ccc(C(=O)N[C@@H](C)c3ccncc3Cl)cc12 [Example 148, (S)-4′-((5-((1-(3-chloropyridin-4-yl)ethyl)carbamoyl)-2,3-dimethyl-1H-indol-1-yl)methyl)-[1,1′-biphenyl]-2-carboxylic acid] | 41 | 7540 | 35 | 
5 | Cc1c(C)n(Cc2ccc(-c3ccccc3C(=O)O)cc2)c2ccc(C(=O)N[C@@H](C)c3ccnc4ccccc34)cc12 [Example 149, (S)-4′-((2,3-dimethyl-5-((1-(quinolin-4-yl)ethyl)carbamoyl)-1H-indol-1-yl)methyl)-[1,1′-biphenyl]-2-carboxylic acid] | 6 | 1680 | 15 | 
6 | Cc1c(C)n(Cc2ccc(-c3ccccc3C(=O)O)cc2)c2ccc(C(=O)N[C@@H](C)c3ccc(F)cc3F)cc12 [Example 150, (S)-4′-((5-((1-(2,4-difluorophenyl)ethyl)carbamoyl)-2,3-dimethyl-1H-indol-1-yl)methyl)-[1,1′-biphenyl]-2-carboxylic acid] | 5 | 180 | 30 | 
7 | CCOc1cccc([C@H](C)NC(=O)c2ccc3c(c2)c(C)c(C)n3Cc2ccc(-c3ccccc3C(=O)O)cc2)c1 [Example 151, (S)-4′-((5-((1-(3-ethoxyphenyl)ethyl)carbamoyl)-2,3-dimethyl-1H-indol-1-yl)methyl)-[1,1′-biphenyl]-2-carboxylic acid] | 21 | 618 |  | 25
8 | Cc1c(C)n(Cc2ccc(-c3ccccc3C(=O)O)cc2)c2ccc(C(=O)N[C@@H](C)c3cccc4ccccc34)cc12 [Example 152, (S)-4′-((2,3-dimethyl-5-((1-(naphthalen-1-yl)ethyl)carbamoyl)-1H-indol-1-yl)methyl)-[1,1′-biphenyl]-2-carboxylic acid] | 256 | 766 | 17 | 
9 | Cc1c(C)n(Cc2ccc(-c3ccccc3C(=O)O)cc2)c2ccc(C(=O)N[C@@H](C)c3ccc(OC(F)(F)F)cc3)cc12 [Example 153, (S)-4′-((2,3-dimethyl-5-((1-(4-(trifluoromethoxy)phenyl)ethyl)carbamoyl)-1H-indol-1-yl)methyl)-[1,1′-biphenyl]-2-carboxylic acid] | 28 | 4160 | 25 | 
10 | Cc1c(C)n(Cc2ccc(-c3ccccc3C(=O)O)cc2)c2ccc(C(=O)N[C@@H](C)c3ccc(C(F)(F)F)cc3)cc12 [Example 154, (S)-4′-((2,3-dimethyl-5-((1-(4-(trifluoromethyl)phenyl)ethyl)carbamoyl)-1H-indol-1-yl)methyl)-[1,1′-biphenyl]-2-carboxylic acid] | 61 | 522 | 5 | 
11 | Cc1c(C)n(Cc2ccc(-c3ccccc3C(=O)O)cc2)c2ccc(C(=O)N[C@@H](C)c3cccc(F)c3)cc12 [Example 158, (S)-4′-((5-((1-(3-fluorophenyl)ethyl)carbamoyl)-2,3-dimethyl-1H-indol-1-yl)methyl)-[1,1′-biphenyl]-2-carboxylic acid] | 8 | 259 |  | 40
12 | Cc1c(C)n(Cc2ccc(-c3ccccc3C(=O)O)cc2)c2ccc(C(=O)N[C@@H](C)c3ccccc3Cl)cc12 [Example 159, (S)-4′-((5-((1-(2-chlorophenyl)ethyl)carbamoyl)-2,3-dimethyl-1H-indol-1-yl)methyl)-[1,1′-biphenyl]-2-carboxylic acid] | < 1 | 152 |  | 30
13 | Cc1c(C)n(Cc2ccc(-c3ccccc3C(=O)O)cc2)c2ccc(C(=O)N[C@@H](C)c3ccccc3F)cc12 [Example 160, (S)-4′-((5-((1-(2-fluorophenyl)ethyl)carbamoyl)-2,3-dimethyl-1H-indol-1-yl)methyl)-[1,1′-biphenyl]-2-carboxylic acid] | 7 | 383 |  | 35
14 | COc1cccc([C@@H](C)NC(=O)c2ccc3c(c2)c(C)c(C)n3Cc2ccc(-c3ccccc3C(=O)O)cc2)c1 [Example 161, (R)-4′-((5-((1-(3-methoxyphenyl)ethyl)carbamoyl)-2,3-dimethyl-1H-indol-1-yl)methyl)-[1,1′-biphenyl]-2-carboxylic acid] | 2 | 55 | 30 | 
15 | Cc1c(C)n(Cc2ccc(-c3ccccc3C(=O)O)cc2)c2ccc(C(=O)NCc3ccc(F)cc3F)cc12 [Example 164, 4′-((5-((2,4-difluorobenzyl)carbamoyl)-2,3-dimethyl-1H-indol-1-yl)methyl)-[1,1′-biphenyl]-2-carboxylic acid] | 19 | 987 |  | 30
16 | Cc1c(C)n(Cc2ccc(-c3ccccc3C(=O)O)cc2)c2ccc(C(=O)NCc3ccc(Cl)cc3C(F)(F)F)cc12 [Example 165, 4′-((5-((4-chloro-2-(trifluoromethyl)benzyl)carbamoyl)-2,3-dimethyl-1H-indol-1-yl)methyl)-[1,1′-biphenyl]-2-carboxylic acid] | 2 | 507 | 15 | 
17 | Cc1c(C)n(Cc2ccc(-c3ccccc3C(=O)O)cc2)c2ccc(C(=O)N[C@H](C)c3ccncc3)cc12 [Example 169, (R)-4′-((2,3-dimethyl-5-((1-(pyridin-4-yl)ethyl)carbamoyl)-1H-indol-1-yl)methyl)-[1,1′-biphenyl]-2-carboxylic acid] | 11 | 608 | 20 | 
18 | Cc1c(C)n(Cc2ccc(-c3ccccc3C(=O)O)cc2)c2ccc(C(=O)N[C@@H](C)c3cccc(F)c3Cl)cc12 [Example 170, (S)-4′-((5-((1-(2-chloro-3-fluorophenyl)ethyl)carbamoyl)-2,3-dimethyl-1H-indol-1-yl)methyl)-[1,1′-biphenyl]-2-carboxylic acid] | 4 | 114 |  | 50
